Consider 90 molecules from a melting point compilation (Tetko et al.; mined from patent text by program, amines drawn as free bases though some values may be those of a salt).

What is called melting point is the temperature, or range, at which the solid turns liquid.

Structures are written as SMILES.

In turn, `CN(Cc1ccccc1)c1cc(-c2nc(=O)c3ccccc3s2)ccn1` returned a melting point of 146 to 147 °C.

Regarding `O=P(c1ccccc1)(c1ccccc1)c1nnc(P(=O)(c2ccccc2)c2ccccc2)c2ccccc12`, the melting point is 225 to 228 °C.

Consider `CS(=O)(=O)Oc1ccc(O)cc1`, for which the melting point fell in the range of 82 to 84 °C.

`CC1(C)OC(c2ccccc2)CN1C(=O)C(Cl)Cl` (stereo not given) gave a melting point of 99.5 to 100 °C.

Take `Cn1nnnc1SCCCn1cc(C2=C(c3cn(C)c4ccccc34)C(=O)NC2=O)c2ccccc21`: the melting point lay in the range of 95 to 97 °C.

Consider `COc1c2c(c(OC)c(OC)c1OC)CC(CCCCCCCCOc1ccc(Cl)cc1)C2`, for which the melting point lay in the range of 38 to 42 °C.

With `O=C1NC(=S)SC1=Cc1ccc2c(c1)N(OCc1ccc(Cl)c(Cl)c1)C(=O)CO2`, the melting point was above 300 °C.

As to `CCOC(=O)Oc1c(OC)cc(C=CC(=O)Nc2cnc3c(C)cc(C)cc3c2-c2ccccc2Cl)cc1OC`, the melting point was 228 to 229 °C.

For `Cc1ncc(CNC(=O)c2nc3n(c(=O)c2O)CCOC3(C)C)s1`, the melting point was 245 °C.

`COc1ccc(C=CC(=O)c2c(OC)cc(OC)cc2OC(=O)c2ccc(OC)cc2OC)cc1` gave a melting point of 119 to 120 °C.

As for `O=C1N(Cc2ccc(C(F)(F)F)o2)c2ccccc2C12COc1cc3c(cc12)CCO3` (stereo not given), the melting point fell in the range of 64 to 65 °C.

The molecule `O=c1ccc(-c2ccc(OC(F)(F)F)cc2)n[nH]1` gave a melting point of 178 °C.

Regarding `O=C(NCc1ccc(Cl)cc1)c1cnc2c(Cl)cccc2c1O`, the melting point lay in the range of 279 to 281 °C.

Molecule `CCn1c(N)c(C(=O)NC)c(=O)c2ccc(-c3ccc(NS(=O)(=O)c4cccc(Cl)c4Cl)c(F)c3)nc21` had a melting point of 333 °C.

Turning to `CCn1nc2c(n1)C(N1CCN(C)CC1)=Nc1cc(F)ccc1N2`, the melting point is 178 to 180 °C.

`CCS(=O)(=O)CCC(=O)NNC(=O)N1Cc2ccccc2Oc2ccc(N)cc21` registered a melting point of 172 to 179 °C.

`CNn1c(C)nn(C(=O)NC(C)(C)CCl)c1=O`: the melting point is 93 °C.

`CN1CCN(c2nc(N)c3c(n2)CCCS3)CC1` had a melting point of 140 to 141 °C.

In turn, `Cn1cc(CC(NC(=O)CCS)C(=O)O)c2ccccc21` (racemic) yielded a melting point of 115 to 117 °C.

In turn, `Oc1ccccc1Oc1ccc(Cl)cn1` gave a melting point of 97 to 100 °C.

As for `c1ccc2c(c1)Sc1ccccc1C1=C2CCNCC1`, the melting point was 142 to 143 °C.

Molecule `CC(=O)OCC1=CC(=O)C=C2CCC3C4CCC(=O)C4(C)CCC3C21C` (stereo not given) returned a melting point of 121 to 123 °C.

`Cc1cccc(Cl)c1-n1nc(C(C)C)c(C(N)=O)c1N` returned a melting point of 72 to 74 °C.

Molecule `CN(C)C1(Cc2ccccc2)CCC(O)(c2cc3ccccc3s2)CC1` (stereo not given) yielded a melting point of 128 to 131 °C.

`COc1cccc(C(=O)Nc2ccc(N3CCOCC3)cc2C(C)=O)c1OC`: the melting point lay within 146 to 148 °C.

As to `Nc1ccc(F)c(N2C(=O)C3=C(CCCC3)C2=O)c1`, the melting point was in the range of 134 to 136 °C.

In the case of `CCc1cccc(C)c1CNc1cc(Cn2ccnc2)cn2nc(C)nc12`, the melting point worked out at 158 °C.

Consider `CCCn1nc(-c2sc(C(=O)NC3CC3)nc2-c2ccccc2)ccc1=O`, for which the melting point is 146 to 147 °C.

For the molecule `CCCOC(=O)c1ccc(C(=O)NNC(=O)c2ccc(C(=O)OCCC)cc2)cc1`, the melting point fell in the range of 173 to 175 °C.

In turn, `CC(C)(C)n1ncc(SCc2ccc(Oc3ccc(C(F)(F)F)cc3)cc2)c(Cl)c1=O` displayed a melting point of 152 to 156 °C.

On to `CC(=O)Nc1ccc(C=CC2=NNC(=O)C(C)(C)C2)cc1`, for which the melting point fell in the range of 255 to 257 °C.

`O=C(O)CCCOc1cccc(OCc2ccccc2)c1` yielded a melting point of 76 to 77 °C.

Consider `CCCOc1ccccc1-c1nc2nc(NCCCS(C)(=O)=O)ncc2c(=O)[nH]1`, for which the melting point lay within 222 to 223 °C.

With `COC(=O)[C@@H](C)Nc1ncccc1NC(=O)c1ccc(Cl)cc1`, the melting point is 125 to 134 °C.

`CC1(C)CC(O)CC(C)(C)N1OC(=NC1CCCCC1)NC1CCCCC1` came in with a melting point of 157 to 161 °C.

The molecule `C#Cc1cn(C2CC(F)C(COC(c3ccccc3)(c3ccccc3)c3ccccc3)O2)c(=O)[nH]c1=O` (stereo not given) displayed a melting point of 54 °C.

Molecule `CN1CCN2c3ccc([N+](=O)[O-])cc3C(c3cccs3)=NCC2C1` (stereo not given) came in with a melting point of 174 to 175 °C.

With `Cc1ccc(Cl)c(-c2ccc(S(=O)(=O)N3c4ccccc4CC3C(=O)NCCOc3ccc(CC(=O)O)cc3)cc2)c1` (stereo not given), the melting point fell in the range of 77 to 81 °C.

Molecule `CCS(=O)(=O)Nc1ccc(F)cc1Br` showed a melting point of 79 to 81 °C.

In the case of `CNCc1ccc2nc(NC(=O)c3ccc(C(C)(C)C)cc3)cn2c1`, the melting point lay in the range of 204 to 205 °C.

`COc1ccc(F)c2c1C[C@@H](NO)CO2` had a melting point of 111 to 113 °C.

`Cc1cn2c(=O)c(CCN3CCC(C(=O)c4ccc(F)cc4)CC3)cnc2n1Cc1ccccc1` registered a melting point of 157 °C.

Turning to `C=C(C)C(=O)Nc1ccc(O)c(-n2nc3ccc(OC)cc3n2)c1`, the melting point lay within 199 to 201 °C.

For the molecule `CN(C)C=Cc1ncc([N+](=O)[O-])n1CCN(C)C`, the melting point was 81 to 82 °C.

Molecule `CCOc1nc2cc(OC)cc(C)c2c(=O)o1` returned a melting point of 138 to 140 °C.

Turning to `CCOC(=O)c1ccc(/C=C(\C)C=O)c(OC)c1`, the melting point was 59 to 61 °C.

The molecule `CNc1nc(C(=O)N(C)Cc2cc(C(F)(F)F)cc(C(F)(F)F)c2)c(-c2ccccc2)c2ccccc12` registered a melting point of 213 to 214 °C.

Regarding `O=C1NCC(c2ccccc2)CCC1Br` (stereo not given), the melting point was in the range of 218 to 220 °C.

`CC(C)(C)OC(=O)N[C@H]1CCC(=O)C1` came in with a melting point of 97 to 98 °C.

`O=C(NC(=O)c1ccc(F)c(OC(F)F)c1F)NC1CC1` gave a melting point of 128 to 130 °C.

For the molecule `Cn1c(SC(C)(CO)c2ccccc2)cc2ccccc21` (stereo not given), the melting point was 118 to 119 °C.

`CC(C)c1ccc(N(Cc2cnn(CCO)c2)C(=O)C2CCCc3c(O)cccc32)cc1` (stereo not given) yielded a melting point of 110 to 114 °C.

For the molecule `COC(=O)C1=C(C)NN=C(C(=O)N(C)Cc2ccccc2)C1c1ccccc1C(F)(F)F` (stereo not given), the melting point worked out at 197 °C.

As to `ON=CNc1ccc(N2CCOCC2)nc1`, the melting point was 172 to 174 °C.

With `COc1ccc2c(c1)CCN(C(=O)Cc1ccc([N+](=O)[O-])cc1)C2C` (stereo not given), the melting point is 112 to 114 °C.

Regarding `COC(=O)Nc1nc2cc(F)c(OC(C)c3c(Cl)ccc(F)c3Cl)cc2[nH]1` (stereo not given), the melting point lay in the range of 245 to 250 °C.

`Cc1ccccc1Cc1nc2cc(Cl)c(S(N)(=O)=O)cc2[nH]1` returned a melting point of 226 to 230 °C.

On to `CCCCc1nc2c(N)nc3cccnc3c2n1CCNC(=O)CC(C)CCC=C(C)C` (stereo not given), for which the melting point lay within 163 to 164 °C.

In turn, `CCC(=O)Nc1cccc(-c2ccnc3c(C(=O)c4ccccc4)cnn23)c1` yielded a melting point of 172 to 174 °C.

Regarding `Cc1noc(NS(=O)(=O)c2ccsc2C(=O)c2ccc3c(c2)OCO3)c1Br`, the melting point lay within 47 to 49 °C.

Take `C=CCOC(=O)c1ccc(OC(=O)C2CC3=C(C2)C(C)(C)CCC3(C)C)cc1`: the melting point fell in the range of 48 to 50 °C.

Turning to `Fc1cccc(F)c1-c1ccncc1`, the melting point was in the range of 113 to 114 °C.

In turn, `N#CCc1c[nH]c2ccc(NC(=O)c3ccc[nH]3)cc12` displayed a melting point of 216 to 218 °C.

In turn, `COc1ccc(-c2cnc3c(-c4ccccc4)nc(-c4cccc(OC)c4)nc3c2)cc1` had a melting point of 131 to 132 °C.

With `O=C1C=CC(O)(c2nc3ccccc3o2)C=C1`, the melting point was 116 to 117 °C.

On to `NS(=O)(=O)OCCOc1ccccc1Cl`, for which the melting point was 84.5 to 86 °C.

`O=C1c2ccc(Br)cc2C(=O)c2ccc(Br)cc21`: the melting point is above 280 °C.

Turning to `OC(c1ccccc1)(c1cc2ccccc2s1)C1CCN(CCc2ccccc2)CC1` (stereo not given), the melting point lay in the range of 144 to 146 °C.

For the molecule `CN(C)C(=O)NCC1(C)OCCc2c1[nH]c1ccccc21` (stereo not given), the melting point was in the range of 153 to 155 °C.

Molecule `CN(C)C=C(C#N)C(=O)c1cc(F)c(Cl)cc1Cl` returned a melting point of 138 to 139 °C.

In turn, `C[Si](C)(C)CCCCOC(=O)CSc1cc(Oc2ccc(C(F)(F)F)cc2Cl)ccc1[N+](=O)[O-]` displayed a melting point of 78 to 81 °C.

`O=C1NC(=O)C(Cc2ccc(OCCn3ccc4ccccc43)cc2)S1` (stereo not given): the melting point lay within 42.3 to 44.6 °C.

`COc1c(Cl)nc(SC)nc1NN`: the melting point fell in the range of 118 to 119 °C.

The molecule `OC1Sc2ccccc2-c2ccccc21` (stereo not given) gave a melting point of 83 to 86 °C.

The molecule `C=C(CC(=O)O)c1ccc(-c2ccc(F)cc2F)cc1` showed a melting point of 109 to 110 °C.

With `COC(=O)C1CCC2C3CCC4=CC(O)CCC4(C)C3C(=O)CC12C` (stereo not given), the melting point is 121 to 125 °C.

`CC(C)(C)c1ccc(C(=O)NN=Cc2c(O)ccc3ccccc23)cc1` displayed a melting point of 259 to 261 °C.

Consider `COc1cc(-c2ccc(O)c(C3(C)CCCCC3)c2)cc(CC2SC(N3CCOCC3)=NC2=O)c1O` (stereo not given), for which the melting point lay within 221 to 223 °C.

On to `Cc1csc(NC(=O)C2=C(O)c3ccccc3N(c3ccccc3)C2)n1`, for which the melting point was 228 to 230 °C.

Molecule `FC(F)(F)c1ccc(-c2cc(C(F)(F)F)n3cnc(-c4ccncc4)c3n2)cc1` yielded a melting point of 240 °C.

`Cc1cc(C)c(CNc2c(C)nn(C)c2NCC(C)(C)C)c(C)c1` registered a melting point of 114 to 120 °C.

In turn, `O=C1c2ccccc2C(=O)N1CCc1ccc(F)cc1` gave a melting point of 106 to 107 °C.

Molecule `OCCCCCc1ccc(OCc2coc(/C=C/c3ccccc3)n2)cc1` displayed a melting point of 93 to 94 °C.

The molecule `Cc1cccc(Cl)c1CC#N` gave a melting point of 49 to 51 °C.

`CCN(C(=O)c1ccc(CCSn2cnc3ccccc32)cc1)C1CCCCC1` returned a melting point of 114 to 115 °C.

On to `CC1(C)CCSc2ccc(C(O)COc3ccc(C(=O)O)c(O)c3)cc21` (stereo not given), for which the melting point fell in the range of 166 to 167 °C.

`COC(=O)c1sc2c(c1O)CSC2` gave a melting point of 133 to 137 °C.

`COc1cc(NC(N)=O)c2c(c1)OC(C)C2` (stereo not given) registered a melting point of 204 °C.

Consider `COc1cccc2[nH]c(=O)n3c(=O)[nH]nc3c12`, for which the melting point was above 350 °C.

Take `COC(=O)CCCCc1cccnc1CNC=O`: the melting point is 43 to 45 °C.
